These are literature values, as cited in US20050165041A1, “Combination for the treatment of airway disorders” (Altana Pharma AG, priority 2002, published 2005).

The conditions of data set [1]: combination with theophyllin.
The conditions of data set [2]: 8-week double-blind, placebo-controlled crossover study; sole medication.
The next data set relates to HCl-induced lung lesions. Particulars: rats.

Consider `Cc1c(OCC(F)(F)F)ccnc1C[S+]([O-])c1nc2ccccc2[nH]1` (stereo not shown) [lansoprazole], for which, in data set [1], the “pharmacokinetic interaction with theophyllin” value is “lack of pharmacokinetic interaction”.
For the molecule `COc1ccc2[nH]c([S+]([O-])Cc3ncc(C)c(OC)c3C)nc2c1` (stereo not shown) [omeprazole, 5-methoxy-2-[(4-methoxy-3,5-dimethyl-2-pyridinyl)methylsulphinyl]-1H-benzimidazole], in data set [2], the nocturnal asthma symptoms result is “reduction in nocturnal asthma symptoms”. Further, in the data set on HCl-induced lung lesions, the “effect on HCl-induced lung lesions” value is reported as “beneficial effect”.
As to `COc1ccnc(C[S+]([O-])c2nc3ccc(OC(F)F)cc3[nH]2)c1OC` (stereo not shown) [pantoprazole, 5-difluoromethoxy-2-[(3,4-dimethoxy-2-pyridinyl)methylsulphinyl]-1H-benzimidazole], the “pharmacokinetic interaction with theophyllin” value in data set [1] is recorded as “lack of pharmacokinetic interaction”.
